Assay results taken from patent US11566017B2, “Dihydroquinazolinone compound or pharmacologically acceptable salt, and cell growth inhibitor” (RIKEN, priority 2017, dated 2023).

What was measured:
[1] = system: human colorectal cancer cell line COLO-320DM; assay: Cell proliferation inhibitory activity test (Celltiter-Glo); assay type: cell-based; conditions: COLO-320DM cells, 96 hours
Description: The cell proliferation inhibitory activity of the compound, which had been prepared in each of Examples, against the human colorectal cancer cell line COLO-320DM was evaluated by Celltiter-Glo Luminescent Cell Viability Assay (Promega Corporation; G7573). COLO-320DM cells were cultured in RPMI-1640 medium containing 2 mM glutamine (Wako Pure Chemical Industries, Ltd; 189-02025) supplemented with 10% fetal bovine serum. The cultured cells were washed with PBS, and then dissociated with trypsin/EDTA, and a cell solution with 3×10^4 cells/mL was prepared.
Subsequently, the cell solution was seeded in a 96-well microplate (Thermo/Nunc Company; 136101) in an amount of 70 μL per well, and cultured overnight under the condition of 37° C. and 5% CO2. Next day, a test compound solution obtained by diluting the test compound (DMSO solution) with a cell culture medium (final concentration of DMSO was 1%) was added in an amount of 10 μL per well, and the mixture was reacted under the condition of 37° C. and 5% CO2 for 96 hours (a 1% DMSO solution was used as a control). Thereafter, a Celltiter-GloLuminescent Cell Viability Assay reagent (Promega Corporation; G7573) was added in an amount of 80 μL per well, the mixture was stirred with a shaker for 2 minutes while light was blocked with an aluminum foil, and the mixture was incubated at room temperature for 10 minutes.
Thereafter, a luminescence signal was measured with a luminometer (Biotech Company; Synergy). The ratio of cell proliferation in each compound addition group to cell proliferation in a control group containing no test compound solution, where cell proliferation in the control group is 100%, was calculated and the value of a compound concentration necessary for suppressing the amount of residual cells to 50% of that in the control (GI50) was calculated as the cytostatic activity. […] An unevaluated test compound was designated as “NT”.

tankyrase 2 (TNKS2) = molecular target: T1, tankyrase 2 (TNKS2) (Homo sapiens, UniProt Q9H2K2); assay: Tankyrase inhibitory activity test (ELISA, auto-poly(ADP-ribosyl)ation), tankyrase 2; assay type: biochemical; conditions: Flag tagged tankyrase 2 (613-1,116aa, ANK5+SAM+PARP); read-out: TNKS2 (inhibitory activity against tankyrase 2, IC50)
T1 construct: tankyrase 2 (613-1,116aa, ANK5+SAM+PARP); made in house; host or cells: cell-free protein expression system
Description: (§1) The enzymatic activity of tankyrase 1 and the enzymatic activity of tankyrase 2 were measured by the ELISA method based on assessment of auto-poly(ADP-ribosyl)ation to evaluate the tankyrase inhibitory activity of the compound prepared in each of Examples (test compound) (inhibitory activity against tankyrase 1 (TNKS1) and inhibitory activity against tankyrase 2 (TNKS2)). First, Flag tagged tankyrase 1 (1,024-1,327aa, SAM+PARP) and tankyrase 2 (613-1,116aa, ANK5+SAM+PARP) were synthesized with a cell-free protein expression system, and diluted with a Tris buffer solution (50 mM Tris-HCl (pH 8.0), 150 mM NaCl, 10% glycerol). 50 μL of the diluted tankyrase 1 or tankyrase 2 was added to a plate with an anti-FLAG M2 monoclonal antibody immobilized thereon (Anti-FLAG High-Sensitivity M2-Coated Plate) (Sigma-Aldrich), and the plate was left standing overnight at 4° C. Thereafter, the plate was washed four times with a PBS (PBST) buffer containing 0.1% Triton X-100. For Example 84, the Anti-FLAG High-Sensitivity M2-Coated Plate was replaced by an immunoplate (Thermo Fisher Scientific), tankyrase 1 or tankyrase 2 was immobilized on the immunoplate, and the immunoplate was then blocked with Blocking One (nacalai tesque), then washed with a PBS (PBST) buffer, and used as the following plate.
(§2) Subsequently, the test compound diluted with an assay buffer (50 mM Tris-HCl (pH 8.0), 4 mM MgCl2, 0.2 mM DTT) (DMSO was used as a control) was added to each well of the plate, and the plate was left standing at room temperature for 10 minutes. Thereafter, a biotin-labeled NAD solution (225 μM NAD, 25 μM 6-Biotin-17-NAD (Travigen, Inc.)) was added and mixed as a donor substrate, and the mixture was reacted at 30° C. for 45 minutes. To blank wells was added distilled water instead of the biotin-labeled NAD solution. After the reaction, the plate was washed with a PBST buffer four times. Thereafter, HRP (horseradish peroxidase)-labeled streptavidin (Travigen, Inc.) was diluted with a PBS buffer by 1,000 times, and added to each well, and the mixture was reacted at room temperature for 20 minutes. The plate was washed with a PBST buffer four times, a chemiluminescent substrate solution TACS-Sapphire (Travigen, Inc.) was then added to each well, the mixture was reacted at room temperature for 20 minutes, and the chemiluminescence intensity was measured using a chemiluminescence measuring apparatus. For Example 84, the streptavidin was diluted by 5,000 times, the chemiluminescent substrate solution TACS-Sapphire was replaced by an ELISA POD substrate TMB solution easy (nacalai tesque), the mixture was reacted at room temperature for 30 minutes, and the chemiluminescence intensity was measured using a chemiluminescence measuring apparatus.
(§3) The residual enzymatic activity in the presence of the test compound was determined from the following expression. On the basis of the residual enzymatic activity at each of multiple concentrations of the test compound, the enzyme inhibitory activity was calculated in terms of a 50%-inhibition concentration (IC50 value) using data analysis software Origin (LightStone Corp.). Residual activity (%)={(chemiluminescence intensity with test compound added)−(chemiluminescence intensity of blank)}/{(chemiluminescence intensity of control)−(chemiluminescence intensity of blank)}

tankyrase 1 (TNKS1) = molecular target: T2, tankyrase 1 (TNKS1) (Homo sapiens, UniProt O95271); assay: Tankyrase inhibitory activity test (ELISA, auto-poly(ADP-ribosyl)ation), tankyrase 1; assay type: biochemical; conditions: Flag tagged tankyrase 1 (1,024-1,327aa, SAM+PARP); read-out: TNKS1 (inhibitory activity against tankyrase 1, IC50)
T2 construct: tankyrase 1 (1,024-1,327aa, SAM+PARP); made in house; host or cells: cell-free protein expression system
Description: as §1, §2, §3

T2 sequence (O95271 1024-1327): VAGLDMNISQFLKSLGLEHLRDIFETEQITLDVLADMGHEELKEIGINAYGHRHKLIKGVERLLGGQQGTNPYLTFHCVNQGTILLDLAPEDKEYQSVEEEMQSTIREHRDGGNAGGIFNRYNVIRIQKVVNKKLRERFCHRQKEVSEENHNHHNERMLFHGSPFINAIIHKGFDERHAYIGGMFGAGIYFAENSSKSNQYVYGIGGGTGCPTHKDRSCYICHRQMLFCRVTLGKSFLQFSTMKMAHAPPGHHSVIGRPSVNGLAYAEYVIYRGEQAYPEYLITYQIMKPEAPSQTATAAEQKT

| SMILES | GI50 [1] | IC50 (tankyrase 2 (TNKS2)) | IC50 (tankyrase 1 (TNKS1)) |
| --- | --- | --- | --- |
| CN1c2ccccc2C(=O)NC1c1c[nH]nc1-c1ccc(NC(=O)c2ccccc2)cc1 (stereo not drawn) [Example 4, N-[4-[4-(1-Methyl-4-oxo-2,3-dihydroquinazolin-2-yl)-1H-pirazol-3-yl]phenyl]benzamide] | ≥ 10000 nM | < 5 nM | 5 to 20 nM |
| CN1CCN(Cc2cccc(-c3ccc(-c4n[nH]cc4C4NC(=O)c5ccccc5N4C)cc3)c2)CC1 (stereo not drawn) [Example 26, 1-Methyl-2-[5-[4-[3-[(4-methylpiperazin-1-yl)methyl]phenyl]phenyl]-1H-pyrazol-4-yl]-2,3-dihydroquinazolin-4-one] | ≥ 10000 nM | 5 to 20 nM | 20 to 50 nM |
| CN1c2ccccc2C(=O)NC1c1c[nH]nc1-c1ccc(-c2ccc(N3CCNCC3)cc2)cc1 (stereo not drawn) [Example 41] | 1000 to 10000 nM | 5 to 20 nM | 20 to 50 nM |
| CN1CCN(c2ccc(-c3cccc(-c4n[nH]nc4C4NC(=O)c5ccccc5N4C)c3)cc2)CC1 (stereo not drawn) [Example 61, 1-Methyl-2-[5-[3-[4-(4-methylpiperazin-1-yl)phenyl]phenyl]-2H-1,2,3-triazol-4-yl]-2,3-dihydroquinazolin-4-one] | ≥ 10000 nM | 5 to 20 nM | 5 to 20 nM |
| CCOC(=O)Cc1ccc(-c2ccc(-c3[nH]ncc3C3NC(=O)c4ccccc4N3C)cc2)cc1 (stereo not drawn) [Example 36, Ethyl 2-[4-[4-[4-(1-methyl-4-oxo-2,3-dihydroquinazolin-2-yl)-1H-pyrazol-5-yl]phenyl]phenyl]acetate] | ≥ 10000 nM | 20 to 50 nM | 20 to 50 nM |
| CCOC(=O)Cc1ccc(-c2cccc(-c3n[nH]cc3C3NC(=O)c4ccccc4N3C)c2)cc1 (stereo not drawn) [Example 37, Ethyl 2-[4-[3-[4-(1-methyl-4-oxo-2,3-dihydroquinazolin-2-yl)-1H-pyrazol-5-yl]phenyl]phenyl]acetate] | ≥ 10000 nM | 20 to 50 nM | 20 to 50 nM |
| O=C1NC(c2n[nH]nc2-c2ccc(OCC(F)F)cc2)N2CCc3cccc1c32 (stereo not drawn) [Example 84, 11-[5-[4-(2,2-Difluoroethoxy)phenyl]-2H-1,2,3-triazol-4-yl]-1,10-diazatricyclo[6.3.1.0^4,12]dodeca-4(12),5,7-trien-9-one] | ≥ 10000 nM | 5 to 20 nM | 5 to 20 nM |
| CCc1cccc2c1NC(c1c[nH]nc1-c1ccc(OC)cc1)NC2=O (stereo not drawn) [Example 57, 8-Ethyl-2-[3-(4-methoxyphenyl)-1H-pyrazol-4-yl]-2,3-dihydro-1H-quinazolin-4-one] | 1000 to 10000 nM | < 5 nM | 5 to 20 nM |
| COc1cccc(-c2n[nH]cc2C2NC(=O)c3ccccc3N2C)c1 (stereo not drawn) [Example 15, 2-[5-(3-Methoxyphenyl)-1H-pyrazol-4-yl]-1-methyl-2,3-dihydroquinazolin-4-one] | ≥ 10000 nM | 20 to 50 nM | 5 to 20 nM |
| CN1CCN(Cc2ccc(-c3ccc(-c4n[nH]cc4C4NC(=O)c5ccccc5N4C)cc3)cc2)CC1 (stereo not drawn) [Example 25, 1-Methyl-2-[5-[4-[4-[(4-methylpiperazin-1-yl)methyl]phenyl]phenyl]-1H-pyrazol-4-yl]-2,3-dihydroquinazolin-4-one] | ≥ 10000 nM | 20 to 50 nM | 5 to 20 nM |

Now from value to compound:

| GI50 [1] | IC50 (tankyrase 2 (TNKS2)) | IC50 (tankyrase 1 (TNKS1)) | SMILES |
| --- | --- | --- | --- |
| ≥ 10000 nM | < 5 nM | 5 to 20 nM | CN1c2ccccc2C(=O)NC1c1c[nH]nc1-c1ccc(I)cc1 (stereo not drawn) [Example 19, 2-[3-(4-Iodophenyl)-1H-pyrazol-4-yl]-1-methyl-2,3-dihydroquinazolin-4-one] |
| ≥ 10000 nM | 5 to 20 nM | 20 to 50 nM | CN1c2ccccc2C(=O)NC1c1c[nH]nc1-c1cccc(Br)c1 (stereo not drawn) [Example 20, 2-[3-(3-Bromophenyl)-1H-pyrazol-4-yl]-1-methyl-2,3-dihydroquinazolin-4-one] |
| 1000 to 10000 nM | < 5 nM | < 5 nM | CN1c2ccccc2C(=O)NC1c1c[nH]nc1-c1ccc(OCc2ccccc2)c(F)c1 (stereo not drawn) [Example 45, 2-[3-(3-Fluoro-4-phenylmethoxyphenyl)-1H-pyrazol-4-yl]-1-methyl-2,3-dihydroquinazolin-4-one] |
| ≥ 10000 nM | 5 to 20 nM | 5 to 20 nM | CN1c2ccccc2C(=O)NC1c1n[nH]nc1-c1cccc(-c2ccc(N3CCOCC3)cc2)c1 (stereo not drawn) [Example 62, 1-Methyl-2-[4-[3-(4-morpholin-4-ylphenyl)phenyl]-2H-1,2,3-triazol-5-yl]-2,3-dihydroquinazolin-4-one] |
| ≥ 10000 nM | < 5 nM | 5 to 20 nM | Cc1cccc2c1NC(c1n[nH]nc1-c1ccc(Br)cc1)NC2=O (stereo not drawn) [Example 66, 2-[4-(4-Bromophenyl)-2H-1,2,3-triazol-5-yl]-8-methyl-2,3-dihydro-1H-quinazolin-4-one] |
| 1000 to 10000 nM | 5 to 20 nM | 5 to 20 nM | CCCOc1ccc(-c2n[nH]nc2C2NC(=O)c3cccc(C)c3N2)cc1 (stereo not drawn) [Example 74, 8-Methyl-2-[5-(4-propoxyphenyl)-2H-1,2,3-triazol-4-yl]-2,3-dihydro-1H-quinazolin-4-one] |
| 1000 to 10000 nM | 5 to 20 nM | 5 to 20 nM | COc1ccc(-c2n[nH]cc2C2NC(=O)c3ccccc3N2C)cc1 (stereo not drawn) [Example 83, 2-[5-(4-Methoxyphenyl)-1H-pyrazol-4-yl]-1-methyl-2,3-dihydroquinazolin-4-one] |
| 1000 to 10000 nM | 5 to 20 nM | 20 to 50 nM | CN1c2ccccc2C(=O)NC1c1c[nH]nc1-c1ccc(OC(F)(F)F)cc1 (stereo not drawn) [Example 48, 1-Methyl-2-[3-(4-(trifluoromethoxy)phenyl)-1H-pyrazol-4-yl]-2,3-dihydroquinazolin-4-one] |
| ≥ 10000 nM | 5 to 20 nM | 20 to 50 nM | CN1c2ccccc2C(=O)NC1c1n[nH]nc1-c1ccc(-c2ccc(N3CCOCC3)cc2)cc1 (stereo not drawn) [Example 7, 1-Methyl-2-[4-[4-(4-morpholin-4-ylphenyl)phenyl]-2H-1,2,3-triazol-5-yl]-2,3-dihydroquinazolin-4-one] |
| ≥ 10000 nM | < 5 nM | 5 to 20 nM | CN1c2ccccc2C(=O)NC1c1c[nH]nc1-c1ccc(OCc2ccccc2)cc1 (stereo not drawn) [Example 11, 1-Methyl-2-[3-(4-phenylmethoxyphenyl)-1H-pyrazol-4-yl]-2,3-dihydroquinazolin-4-one] |
| ≥ 10000 nM | 5 to 20 nM | 5 to 20 nM | COc1ccc(-c2n[nH]nc2C2NC(=O)c3cccc(O)c3N2)cc1 (stereo not drawn) [Example 67, 8-Hydroxy-2-[5-(4-methoxyphenyl)-2H-1,2,3-triazol-4-yl]-2,3-dihydro-1H-quinazolin-4-one] |
